{"source": "patent US6528095B1", "about": "“Anti-atherosclerotic and anti-thrombotic agent and the use thereof” (Potchefstroom University for Christian Higher Education, priority 2000, dated 2003)", "key": {"[1]": {"assay": "Pectin / calcium acetate supplementation in human males: body weight and BMI", "assay_type": "in vivo"}, "fibrin clot [2]": {"target": "fibrin clot (Homo sapiens, UniProt P02671+P02675+P02679)", "sequence (P02671 36-629 limits assumed)": "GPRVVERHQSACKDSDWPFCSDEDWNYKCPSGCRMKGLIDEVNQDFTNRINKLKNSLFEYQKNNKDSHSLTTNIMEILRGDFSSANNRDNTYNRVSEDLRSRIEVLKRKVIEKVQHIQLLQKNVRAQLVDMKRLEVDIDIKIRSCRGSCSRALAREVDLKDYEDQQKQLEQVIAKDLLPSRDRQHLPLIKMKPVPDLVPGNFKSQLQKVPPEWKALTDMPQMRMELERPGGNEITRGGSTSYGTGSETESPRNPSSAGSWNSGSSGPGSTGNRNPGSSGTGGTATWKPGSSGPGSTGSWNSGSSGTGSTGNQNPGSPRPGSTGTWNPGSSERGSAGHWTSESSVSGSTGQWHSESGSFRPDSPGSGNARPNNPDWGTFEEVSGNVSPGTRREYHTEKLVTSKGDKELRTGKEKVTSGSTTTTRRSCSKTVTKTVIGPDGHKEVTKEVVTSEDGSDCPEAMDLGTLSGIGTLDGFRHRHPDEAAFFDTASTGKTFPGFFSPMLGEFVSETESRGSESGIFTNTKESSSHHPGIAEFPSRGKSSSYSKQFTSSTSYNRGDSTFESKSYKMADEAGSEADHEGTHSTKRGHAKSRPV", "sequence (P02675 45-491 limits assumed)": "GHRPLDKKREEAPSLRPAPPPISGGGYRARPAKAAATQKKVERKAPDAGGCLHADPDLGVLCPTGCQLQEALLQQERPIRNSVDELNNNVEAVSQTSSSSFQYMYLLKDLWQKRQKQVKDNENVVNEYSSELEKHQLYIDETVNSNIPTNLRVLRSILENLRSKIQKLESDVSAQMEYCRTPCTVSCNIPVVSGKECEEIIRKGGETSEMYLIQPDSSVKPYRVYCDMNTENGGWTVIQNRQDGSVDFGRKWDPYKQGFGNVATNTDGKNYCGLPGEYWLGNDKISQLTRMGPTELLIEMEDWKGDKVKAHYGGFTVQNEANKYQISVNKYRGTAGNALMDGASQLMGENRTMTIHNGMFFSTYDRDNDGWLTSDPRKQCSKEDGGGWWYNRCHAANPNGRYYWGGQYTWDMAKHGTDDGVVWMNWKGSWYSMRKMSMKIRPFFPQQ", "sequence (P02679 27-437 isoform P02679-2 limits assumed)": "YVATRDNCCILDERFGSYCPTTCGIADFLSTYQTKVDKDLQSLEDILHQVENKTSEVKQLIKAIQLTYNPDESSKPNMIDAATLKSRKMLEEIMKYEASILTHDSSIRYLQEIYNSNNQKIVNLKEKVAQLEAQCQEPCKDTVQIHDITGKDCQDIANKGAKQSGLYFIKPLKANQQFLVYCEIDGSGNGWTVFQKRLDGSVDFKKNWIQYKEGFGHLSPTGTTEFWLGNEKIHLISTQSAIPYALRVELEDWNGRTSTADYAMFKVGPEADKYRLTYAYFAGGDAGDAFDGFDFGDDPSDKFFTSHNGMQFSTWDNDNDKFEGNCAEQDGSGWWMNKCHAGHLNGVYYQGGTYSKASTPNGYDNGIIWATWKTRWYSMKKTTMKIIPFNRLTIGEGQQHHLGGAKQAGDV", "conditions": "in vitro, n = 5"}, "fibrin": {"target": "fibrin (Homo sapiens, UniProt P02671+P02675+P02679)", "sequence (P02671 36-629 limits assumed)": "as the sequence (P02671 36-629 limits assumed) above", "sequence (P02675 45-491 limits assumed)": "as the sequence (P02675 45-491 limits assumed) above", "sequence (P02679 27-437 isoform P02679-2 limits assumed)": "as the sequence (P02679 27-437 isoform P02679-2 limits assumed) above", "conditions": "progressive increase in acetate, FIG. 2", "from_the_text": "FIG. 2 is a urbidity curve of fibrin formation in the presence of different acetate concentrations; and\nReferring to FIG. 2, the kinetics of network growth were subsequently investigated by continuously recording changes in turbidity at 608 nm, during network development under identical experimental conditions."}, "blood lipids [3]": {"test_system": "blood lipids", "assay": "Supplementation in human males: lipid variables", "assay_type": "in vivo", "conditions": "for TC: total cholesterol; for TG: triglycerides", "procedure": "(§1) The respective effects of pectin and an acetate when administered to the colon of a mammal were determined during a first experiment. The experiment was conducted in the following two phases: [drawing 1]\n(§2) Twenty human males participated in the experimentation and these subjects were not on any medication for any chronic diseases at the time, and also had no history of cardiovascular disease. All the subjects were at the time following a relatively high fibre, low fat diet. During the first phase ten subjects consumed a total of 15 grams of pectin per day in four aliquots, while the other ten consumed a total of 15 grams of placebo (starch) per day in four aliquots.\n(§3) During the second phase, the first group consumed a total of 7.5 grams of calcium acetate per day in four aliquots and the second group consumed a total of 15 grams of pectin per day in four aliquots. The calcium acetate was administered in capsules which were coated with a protective coating comprising a resin known commercially as shellac. This protective coating is resistant to digestion and solution in the stomach and small intestines, is but not resistant to the enzymes of the organisms usually found in the colon, so that the calcium acetate was thus released in the colon.\n(§4) Blood samples where taken from the subjects after each phase and a large number of variables where tested."}, "[4]": {"assay": "Pectin / calcium acetate supplementation in human males: body weight and BMI", "assay_type": "in vivo", "from_the_text": "The acetate supplement (phase 2), however, caused a decrease (from 88.16±12.35 kg to 83.09±10.80 kg) in body weight. Although this decrease may not be of statistical significance, it can be clinically significant in the cases of those subjects who lost weight.", "remark": "listed apart in the source"}, "[5]": {"assay": "Supplementation in human males: metabolic variables", "conditions": "for ACETATE: acetate level in blood sample; for FFA: free fatty acids; for IR: insulin resistance; for TP: total protein", "procedure": "as §1, §2, §3, §4"}, "fibrin clot [6]": {"test_system": "fibrin clot", "assay": "Supplementation in human males: haemostatic variables and characteristics of fibrin networks developed in plasma", "assay_type": "in vivo", "conditions": "for CLOT (FIBRIN): clot fibrin content; for LYSIS TIME (t 50%) / Permeability: clot; for COMPACTION: fibrin clot; for MPC: macromolecular protein complex; for μ,: mass length ratio from turbidity; for FIBRINOGEN: plasma", "procedure": "as §1, §2, §3, §4"}, "blood lipids [7]": {"test_system": "blood lipids", "conditions": "for % Inhibition / [Hydroperoxide]: in vitro; for [Hydroperoxide]: n = 5"}, "[8]": {"assay": "Supplementation in human males: haemorheological variables (haematocrit, haemoglobin, plasma viscosity)", "assay_type": "in vivo", "conditions": "for VISCOSITY: plasma", "procedure": "as §1, §2, §3, §4"}, "[9]": {"conditions": "phase 2, end of supplementation (pectin 15 g/day; calcium acetate 7.5 g/day)"}}, "note": "Read-outs that look alike come from different tables or passages of the source.", "data": [{"molecule": "CC(=O)[O-].CC(=O)[O-].[Ca+2]", "note": "[ACETATE, calcium acetate]", "values": [{"measurement": "BODY WEIGHT", "setting": "[1]; phase 2, baseline", "value": "88.16 ± 12.35", "unit": "kg"}, {"measurement": "BODY WEIGHT", "setting": "[1]; phase 2, baseline, listed as PLACEBO", "value": 88.16, "unit": "kg"}, {"measurement": "decrease in body weight", "setting": "[1]; phase 2, clinically significant but statistically insignificant", "value": 5.07, "unit": "kg"}, {"measurement": "BODY WEIGHT", "setting": "[1]; [9]", "value": "83.09 ± 10.80", "unit": "kg"}, {"measurement": "BODY WEIGHT", "setting": "[1]; phase 2, end of supplementation (pectin 15 g/day; calcium acetate 7.5 g/day), listed as PLACEBO", "value": 83.04, "unit": "kg"}, {"measurement": "Clot [FIBRlN]", "setting": "fibrin clot [2]; 75 μmol/L acetate", "value": "1.36 ± 0.03", "unit": "g/L"}, {"measurement": "Permeability", "setting": "fibrin clot [2]; 75 μmol/L acetate", "value": "110.4 ± 5.17 × 10^11 cm^2"}, {"measurement": "μT", "setting": "fibrin clot [2]; 75 μmol/L acetate", "value": "17.44 ± 0.20", "unit": "daltons/cm × 10^12"}, {"measurement": "Clot [FIBRlN]", "setting": "fibrin clot [2]; 100 μmol/L acetate", "value": "1.37 ± 0.07", "unit": "g/L"}, {"measurement": "Permeability", "setting": "fibrin clot [2]; 100 μmol/L acetate", "value": "118.0 ± 6.03 × 10^11 cm^2"}, {"measurement": "μT", "setting": "fibrin clot [2]; 100 μmol/L acetate", "value": "17.95 ± 0.22", "unit": "daltons/cm × 10^12"}, {"measurement": "Clot [FIBRlN]", "setting": "fibrin clot [2]; 150 μmol/L acetate", "value": "1.39 ± 0.05", "unit": "g/L"}, {"measurement": "Permeability", "setting": "fibrin clot [2]; 150 μmol/L acetate", "value": "134.0 ± 5.02 × 10^11 cm^2"}, {"measurement": "μT", "setting": "fibrin clot [2]; 150 μmol/L acetate", "value": "19.51 ± 0.17", "unit": "daltons/cm × 10^12"}, {"measurement": "kinetics of network growth (turbidity at 608 nm)", "setting": "fibrin", "value": "enhanced the entire kinetics"}, {"measurement": "% HDL-C", "setting": "blood lipids [3]; phase 2, baseline", "value": 17.04, "unit": "%"}, {"measurement": "ApoA", "setting": "blood lipids [3]; phase 2, baseline", "value": 1.50, "unit": "mmol/L"}, {"measurement": "ApoB", "setting": "blood lipids [3]; phase 2, baseline", "value": 1.47, "unit": "mmol/L"}, {"measurement": "H2O3", "setting": "blood lipids [3]; phase 2, baseline", "value": 1.27, "unit": "µM"}, {"measurement": "HDL-C", "setting": "blood lipids [3]; phase 2, baseline", "value": 1.11, "unit": "mmol/L"}, {"measurement": "LDL-C", "setting": "blood lipids [3]; phase 2, baseline", "value": "4.97 ± mmol/l"}, {"measurement": "TBARM", "setting": "blood lipids [3]; phase 2, baseline", "value": 1.47, "unit": "µM"}, {"measurement": "% HDL-C", "setting": "blood lipids [3]; [9]", "value": "20.32 ± %"}, {"measurement": "ApoA", "setting": "blood lipids [3]; [9]", "value": "1.40 ± mmol/l"}, {"measurement": "ApoB", "setting": "blood lipids [3]; [9]", "value": "1.34 ± mmol/l"}, {"measurement": "H2O3", "setting": "blood lipids [3]; [9]", "value": "0.81 ± μM"}, {"measurement": "HDL-C", "setting": "blood lipids [3]; [9]", "value": 1.18, "unit": "mmol/L"}, {"measurement": "LDL-C", "setting": "blood lipids [3]; [9]", "value": "4.20 ± mmol/l"}, {"measurement": "TBARM", "setting": "blood lipids [3]; [9]", "value": 1.07, "unit": "µM"}, {"measurement": "TC", "setting": "blood lipids [3]; phase 2, baseline", "value": 6.55, "unit": "mmol/L"}, {"measurement": "TC", "setting": "blood lipids [3]; [9]", "value": "5.81 ± mmol/l"}, {"measurement": "TG", "setting": "blood lipids [3]; phase 2, baseline", "value": 0.65, "unit": "mmol/L"}, {"measurement": "TG", "setting": "blood lipids [3]; [9]", "value": "1.33 ± mmol/l"}, {"measurement": "BMI", "setting": "[4]; phase 2, baseline", "value": 26.90, "unit": "kg/m^2"}, {"measurement": "BMI", "setting": "[4]; [9]", "value": 25.65, "unit": "kg/m^2"}, {"measurement": "ACETATE", "setting": "[5]; phase 2, baseline", "value": 37.63, "unit": "µmol/L"}, {"measurement": "ACETATE", "setting": "[5]; [9]", "value": "54.31 ± μmol/l"}, {"measurement": "FFA", "setting": "[5]; phase 2, baseline", "value": 0.59, "unit": "mmol/L"}, {"measurement": "FFA", "setting": "[5]; [9]", "value": "0.45 ± mmol/l"}, {"measurement": "IR", "setting": "[5]; phase 2, baseline", "value": 3.22}, {"measurement": "IR", "setting": "[5]; [9]", "value": 2.93}, {"measurement": "ALBUMIN", "setting": "[5]; phase 2, baseline", "value": 43.09, "unit": "g/L"}, {"measurement": "GLUCOSE", "setting": "[5]; phase 2, baseline", "value": 3.58, "unit": "mmol/L"}, {"measurement": "INSULIN", "setting": "[5]; phase 2, baseline", "value": 8.96, "unit": "μU/ml"}, {"measurement": "PPA/ALB", "setting": "[5]; phase 2, baseline", "value": "13.69 × 10^1"}, {"measurement": "ALBUMIN", "setting": "[5]; [9]", "value": 45.50, "unit": "g/L"}, {"measurement": "GLUCOSE", "setting": "[5]; [9]", "value": 3.78, "unit": "mmol/L"}, {"measurement": "INSULIN", "setting": "[5]; [9]", "value": 7.61, "unit": "μU/ml"}, {"measurement": "PPA/ALB", "setting": "[5]; [9]", "value": "9.89 ± × 10^1"}, {"measurement": "TP", "setting": "[5]; phase 2, baseline", "value": 71.69, "unit": "g/L"}, {"measurement": "TP", "setting": "[5]; [9]", "value": 71.52, "unit": "g/L"}, {"measurement": "CLOT (FIBRIN)", "setting": "fibrin clot [6]; phase 2, baseline", "value": 2.00, "unit": "g/L"}, {"measurement": "CLOT (FIBRIN)", "setting": "fibrin clot [6]; [9]", "value": "1.62 ± g/l"}, {"measurement": "LYSIS TIME (t 50%)", "setting": "fibrin clot [6]; phase 2, baseline", "value": 251.9}, {"measurement": "Permeability", "setting": "fibrin clot [6]; phase 2, baseline", "value": "212.52 × 10^11 cm^3"}, {"measurement": "LYSIS TIME (t 50%)", "setting": "fibrin clot [6]; [9]", "value": "130.3 ±"}, {"measurement": "Permeability", "setting": "fibrin clot [6]; [9]", "value": "306.81 ± × 10^11 cm^3"}, {"measurement": "COMPACTION", "setting": "fibrin clot [6]; phase 2, baseline", "value": 22.47, "unit": "%"}, {"measurement": "COMPACTION", "setting": "fibrin clot [6]; [9]", "value": "32.21 ± %"}, {"measurement": "MPC", "setting": "fibrin clot [6]; phase 2, baseline", "value": 0.1146, "unit": "g/L"}, {"measurement": "MPC", "setting": "fibrin clot [6]; [9]", "value": "0.0852 ± g/l"}, {"measurement": "μ,", "setting": "fibrin clot [6]; phase 2, baseline", "value": 22.93, "unit": "Dal/cm × 10^12"}, {"measurement": "μ,", "setting": "fibrin clot [6]; [9]", "value": "34.28 ± Dal/cm × 10^12"}, {"measurement": "decrease in the total plasma fibrinogen concentration", "setting": "fibrin clot [6]; phase 2, acetate supplementation, not significant", "value": 11.2, "unit": "%"}, {"measurement": "FIBRINOGEN", "setting": "fibrin clot [6]; phase 2, baseline", "value": 4.10, "unit": "g/L"}, {"measurement": "FIBRINOGEN", "setting": "fibrin clot [6]; [9]", "value": 3.64, "unit": "g/L"}, {"measurement": "% Inhibition", "setting": "blood lipids [7]; 0.05 mmol/L (50 μM) acetate", "value": 46.97, "unit": "%"}, {"measurement": "[Hydroperoxide]", "setting": "blood lipids [7]; 0.05 mmol/L acetate", "value": "4.46 ± 0.15 × 10^−6 M"}, {"measurement": "% Inhibition", "setting": "blood lipids [7]; 0.10 mmol/L (100 μM) acetate", "value": 56.01, "unit": "%"}, {"measurement": "[Hydroperoxide]", "setting": "blood lipids [7]; 0.10 mmol/L acetate", "value": "3.70 ± 0.22 × 10^−6 M"}, {"measurement": "% Inhibition", "setting": "blood lipids [7]; 0.20 mmol/L (200 μM) acetate", "value": 67.11, "unit": "%"}, {"measurement": "[Hydroperoxide]", "setting": "blood lipids [7]; 0.20 mmol/L acetate", "value": "3.04 ± 0.23 × 10^−6 M"}, {"measurement": "% Inhibition", "setting": "blood lipids [7]; 0.30 mmol/L (300 μM) acetate", "value": 73.12, "unit": "%"}, {"measurement": "[Hydroperoxide]", "setting": "blood lipids [7]; 0.30 mmol/L acetate", "value": "2.26 ± 0.16 × 10^−6 M"}, {"measurement": "minium inhibition: decrease of peroxidation in vitro from linear regression analysis", "setting": "blood lipids [7]; r=0.98, m=−0.836", "value": 56.12, "unit": "%"}, {"measurement": "HAEMATOCRIT", "setting": "[8]; phase 2, baseline", "value": 48.55, "unit": "%"}, {"measurement": "HAEMOGLOBIN", "setting": "[8]; phase 2, baseline", "value": 11.12, "unit": "mmol/L"}, {"measurement": "HAEMATOCRIT", "setting": "[8]; [9]", "value": "46.83 ± %"}, {"measurement": "HAEMOGLOBIN", "setting": "[8]; [9]", "value": 10.48, "unit": "mmol/L"}, {"measurement": "VISCOSITY", "setting": "[8]; phase 2, baseline", "value": 1.92, "unit": "cP"}, {"measurement": "VISCOSITY", "setting": "[8]; [9]", "value": "1.61 ± cP"}]}]}
